The subject of assay [1] is Candida albicans. Description: Antifungal activity against Candida albicans SC5314 assessed as inhibition of fungal transformation from budded-to-hyphal-form at 4 uM after 24 hrs by microscopy. Format: functional, organism-based.
In assay [2] the test system is Candida albicans. Briefly: Antifungal activity against Candida albicans SC5314 assessed as inhibition of fungal transformation from budded-to-hyphal-form at 2 uM after 24 hrs by microscopy. Format: functional, organism-based.
Assay [3] relates to Candida albicans. Briefly: Antifungal activity against Candida albicans SC5314 assessed as inhibition of fungal transformation from budded-to-hyphal-form at 1 uM after 24 hrs by microscopy. The class given is functional, organism-based.
The subject of assay [4] is Candida albicans. Description: Antifungal activity against Candida albicans K2 at 6.3 uM after 16 hrs by BacTiter-Glow assay. Format: functional, organism-based.
For assay [5], the system named is Candida albicans. Briefly: Antifungal activity against Candida albicans SC5314 at 6.3 uM after 16 hrs by BacTiter-Glow assay. The class given is functional, organism-based.
Assay [6] deals with Candida albicans. Briefly: Antifungal activity against Candida albicans CBS 5983 at 6.3 uM after 16 hrs by BacTiter-Glow assay. Format: functional, organism-based.
In assay [7] the test system is Candida albicans. Description: Antifungal activity against Candida albicans clinical isolates at 6.3 uM after 16 hrs by BacTiter-Glow assay. The class given is functional, organism-based.
The subject of assay [8] is Candida albicans. Briefly: Antifungal activity against Candida albicans K2 at 32 uM after 16 hrs by BacTiter-Glow assay. The class given is functional, organism-based.
For assay [9], the system named is Candida albicans. Description: Antifungal activity against Candida albicans SC5314 at 32 uM after 16 hrs by BacTiter-Glow assay. Format: functional, organism-based.
The test system of assay [10] is Candida albicans. Briefly: Antifungal activity against Candida albicans CBS 5983 at 32 uM after 16 hrs by BacTiter-Glow assay. Format: functional, organism-based.
Assay [11] relates to Candida albicans. Briefly: Antifungal activity against Candida albicans clinical isolates at 32 uM after 16 hrs by BacTiter-Glow assay. Format: functional, organism-based.
In assay [12] the test system is Candida albicans. Briefly: Antifungal activity against Candida albicans K2 at 4.3 uM after 16 hrs by BacTiter-Glow assay relative to untreated control. Format: functional. The conditions noted are these: pooled result: one value given for 4 cell lines, strains, targets or settings.
For assay [13], the system named is Candida albicans. Briefly: Antifungal activity against Candida albicans K2 at 4.15 uM after 16 hrs by BacTiter-Glow assay relative to untreated control. Format: functional.
The subject of assay [14] is Candida albicans. Briefly: Antifungal activity against Candida albicans SC5314 at 4.15 uM after 16 hrs by BacTiter-Glow assay relative to untreated control. Format: functional.
The test system of assay [15] is Candida albicans. Briefly: Antifungal activity against Candida albicans CBS 5983 at 4.15 uM after 16 hrs by BacTiter-Glow assay relative to untreated control. The class given is functional.
The test system of assay [16] is Candida albicans. Briefly: Antifungal activity against Candida albicans clinical isolates at 4.15 uM after 16 hrs by BacTiter-Glow assay relative to untreated control. Format: functional.
The test system of assay [17] is Candida albicans. Briefly: Antifungal activity against Candida albicans K2 at 4.1 uM after 16 hrs by BacTiter-Glow assay. Format: functional, organism-based.
The test system of assay [18] is Candida albicans. Description: Antifungal activity against Candida albicans SC5314 at 4.1 uM after 16 hrs by BacTiter-Glow assay. The class given is functional, organism-based.
In assay [19] the test system is Candida albicans. Briefly: Antifungal activity against Candida albicans CBS 5983 at 4.1 uM after 16 hrs by BacTiter-Glow assay. The class given is functional, organism-based.
The subject of assay [20] is Candida albicans. Briefly: Antifungal activity against Candida albicans clinical isolates at 4.1 uM after 16 hrs by BacTiter-Glow assay. The class given is functional, organism-based.
Assay [21] relates to Candida albicans. Briefly: Antifungal activity against Candida albicans K2 at 4 uM after 16 hrs by BacTiter-Glow assay. The class given is functional, organism-based.
In assay [22] the test system is Candida albicans. Description: Antifungal activity against Candida albicans SC5314 at 4 uM after 16 hrs by BacTiter-Glow assay. Format: functional, organism-based.
The subject of assay [23] is Candida albicans. Description: Antifungal activity against Candida albicans CBS 5983 at 4 uM after 16 hrs by BacTiter-Glow assay. The class given is functional, organism-based.
The subject of assay [24] is Candida albicans. Description: Antifungal activity against Candida albicans clinical isolates at 4 uM after 16 hrs by BacTiter-Glow assay. The class given is functional, organism-based.
Assay [25] concerns Candida albicans. Briefly: Antifungal activity against Candida albicans K2 at 24.3 uM after 16 hrs by BacTiter-Glow assay. Format: functional, organism-based.
Assay [26] deals with Candida albicans. Description: Antifungal activity against Candida albicans SC5314 at 24.3 uM after 16 hrs by BacTiter-Glow assay. Format: functional, organism-based.
Assay [27] deals with Candida albicans. Description: Antifungal activity against Candida albicans CBS 5983 at 24.3 uM after 16 hrs by BacTiter-Glow assay. The class given is functional, organism-based.
Assay [28] concerns Candida albicans. Description: Antifungal activity against Candida albicans clinical isolates at 24.3 uM after 16 hrs by BacTiter-Glow assay. The class given is functional, organism-based.

The source made the active and inactive calls. No cut-off for these calls is given here.

For the compound `CC[C@H](C)[C@H](NC(=O)[C@H](C)NC(=O)CNC(=O)[C@H](C)NC(=O)[C@H](CCC(=O)O)NC(=O)[C@H](CCCCN)NC(=O)[C@H](CC(C)C)NC(=O)[C@H](Cc1cnc[nH]1)NC(=O)[C@H](CC(C)C)NC(=O)[C@H](Cc1ccccc1)NC(=O)[C@H](CO)NC(=O)[C@H](CC(C)C)NC(=O)[C@H](Cc1ccccc1)NC(=O)[C@H](CCC(=O)O)NC(=O)[C@@H](NC(=O)[C@@H](NC(=O)[C@@H](NC(=O)[C@H](CCCNC(=N)N)NC(=O)[C@H](CCSC)NC(=O)[C@@H](NC(=O)[C@H](CC(N)=O)NC(=O)[C@H](CC(N)=O)NC(=O)[C@H](CCC(=O)O)NC(=O)[C@@H]1CCCN1C(=O)[C@@H](NC(=O)[C@H](CO)NC(=O)[C@H](CCCNC(=N)N)NC(=O)[C@H](CC(=O)O)NC(=O)[C@H](Cc1ccccc1)NC(=O)[C@H](CO)NC(=O)CNC(=O)[C@@H]1CCCN1C(=O)[C@H](CCCCN)NC(=O)[C@H](CCSC)NC(=O)[C@H](CC(=O)O)NC(=O)[C@H](CC(=O)O)NC(=O)[C@H](CCC(=O)O)NC(=O)[C@@H]1CCCN1C(=O)[C@H](CCCNC(=N)N)NC(=O)[C@H](CC(C)C)NC(=O)[C@@H](N)CCC(=O)O)[C@@H](C)CC)[C@@H](C)CC)[C@H](C)O)[C@@H](C)CC)[C@@H](C)CC)C(=O)O`, the outcome in the assay with Candida albicans [1] and in the assay with Candida albicans [2] was Active. The result in the assay with Candida albicans [3] was inactive.

Consider `CC[C@H](C)[C@H](NC(=O)[C@H](C)NC(=O)[C@H](Cc1c[nH]cn1)NC(=O)[C@@H]1CCCN1C(=O)CNC(=O)[C@H](CC(C)C)NC(=O)[C@H](CC(C)C)NC(=O)[C@H](Cc1ccc(O)cc1)NC(=O)CNC(=O)[C@H](C)NC(=O)[C@H](CO)NC(=O)[C@H](CC(N)=O)NC(=O)[C@H](CC(C)C)NC(=O)[C@@H](NC(=O)[C@H](Cc1c[nH]c2ccccc12)NC(=O)CN)[C@@H](C)O)C(=O)N[C@@H](CC(=O)O)C(=O)N[C@@H](CC(N)=O)C(=O)N[C@@H](Cc1c[nH]cn1)C(=O)N[C@@H](CCCNC(=N)N)C(=O)N[C@@H](CO)C(=O)N[C@@H](Cc1ccccc1)C(=O)N[C@@H](Cc1c[nH]cn1)C(=O)N[C@@H](CC(=O)O)C(=O)N[C@@H](CCCCN)C(=O)N[C@@H](Cc1ccc(O)cc1)C(=O)NCC(=O)N[C@@H](CC(C)C)C(=O)N[C@@H](C)C(N)=O`, for which the result in the assay with Candida albicans [4], in the assay on Candida albicans [5], in the assay with Candida albicans [6] and in the assay with Candida albicans [7] was inactive.

As to `OC(Cn1cncn1)(Cn1cncn1)c1ccc(F)cc1F`, the outcome in the assay on Candida albicans [8], with Candida albicans [9], in the assay on Candida albicans [10] and in the assay with Candida albicans [11] was Active.

“H-ELRPEDDMKPGSFDRSIPENNIMRTIIEFLSFLHLKEAGAL-OH”: the Activity in the assay on Candida albicans [12] stood at 48.7%.

On to “H-GIGKFLHSAGKFGKAFVGEIMKS-OH [MAGAININ I]”, for which the Activity in the assay with Candida albicans [13], with Candida albicans [14], with Candida albicans [15] and in the assay on Candida albicans [16] was >90% in each case.

H-LQSEDKAIRTIMEFLAFLHLKEAGAL-OH: the result with Candida albicans [17], in the assay on Candida albicans [18], in the assay with Candida albicans [19], in the assay with Candida albicans [20], in the assay on Candida albicans [21] and in the assay with Candida albicans [22] was Active. Besides, the result with Candida albicans [23], with Candida albicans [24] and in the assay with Candida albicans [1] was Active.

With H-PENNIMRTIIEFLSFLHLKEAGAL-OH, the result in the assay on Candida albicans [25], in the assay with Candida albicans [26], in the assay on Candida albicans [27] and in the assay on Candida albicans [28] was inactive.

Turning to H-SIPENNIMRTIIEFLSFLHLKEAGAL-OH, the result in the assay on Candida albicans [17], in the assay with Candida albicans [18], in the assay on Candida albicans [19], in the assay with Candida albicans [20], in the assay with Candida albicans [21] and in the assay on Candida albicans [22] was Active. Also, the result in the assay on Candida albicans [23], with Candida albicans [24], with Candida albicans [1] and in the assay on Candida albicans [2] was Active. Further, in the assay on Candida albicans [3], the result was inactive.

The values are drawn from ChEMBL document CHEMBL1137632, “Galanin message-associated peptide suppresses growth and the budded-to-hyphal-form transition of Candida albicans” (2007).
